Measured values taken from patent publication US6350586B2, “Method for isolating inhibitors of protease activity” (Long Island Jewish Medical Center, priority 1998, dated 2002).

B1: Trypsin: Protease from the Pierce Quanticleave protease assay kit II (13564 units/mg) (protein, UniProt P00760 24-246, looked up)
Serine protease 1: IVGGYTCGANTVPYQVSLNSGYHFCGGSLINSQWVVSAAHCYKSGIQVRLGEDNINVVEGNEQFISASKSIVHPSYNSNTLNNDIMLIKLKSAASLNSRVASISLPTSCASAGTQCLISGWGNTKSSGTSYPDVLKCLKAPILSDSSCKSAYPGQITSNMFCAGYLEGGKDSCQGDSGGPVVCSGKLQGIVSWGSGCAQKNKPGVYTKVCNYVSWIKQTIASN

How the values were obtained:
Format in all cases: biochemical
[1] = test system: succinylated casein; assay: Protease assay using succinylated casein substrate with TNBSA detection; settings: 100 μg succinylated casein, 37° C., 1 hour
Procedure: (§1) Assay Conditions. Elastase assay using succinylated elastin: A modified version of the method described in the Pierce Quanticleave™ protease assay kit II (Pierce Chemical Co.) was used for the elastase assay. The assay contained 100 μg of succinylated substrate (gelatin, elastin, or casein) and 50 μl of enzyme sample to be assayed, and the reaction was brought up to a final volume of 150 μl with BupH buffer or 50 mM sodium borate, pH 8.0 (50 mM sodium borate, pH 8.0, is a suitable substitute for BupH buffer). All reactions were prepared in 96-well Falcon 3097 flat-bottom microtiter plates (Beckton Dickinson, N.J.) The reactions were then incubated at 37° C. for 60 min. Fifty microliters of a 0.03% solution of TNBSA was then added to each reaction and left for 20 min at room temperature. The optical density of each reaction was then determined using a Bio-Whittaker microplate reader 2001 (Bio-Whittaker, Walkersville, Md.) at 450 nm. Blank reactions were also prepared which contained buffer and protease, buffer and substrate and buffer only. All sample dilutions were prepared in BupH buffer or 50 mM sodium borate buffer, pH 8.0, as were stock solutions of 1 mg/ml elastase and trypsin.
(§2) Comparison of Elastase and Trypsin Substrate Affinities. […] and 1 μg/ml of elastase and trypsin were assayed using succinylated elastin, gelatin, and casein substrate. Enzyme dilutions were prepared from a 1 mg/ml stock of trypsin and elastase in BupH buffer or 50 mM sodium borate, pH 8.0. Assays contained 50 μl enzyme and 100 μg succinylated substrate and were made up to a volume of 150 μl with BupH buffer or 50 mM sodium borate buffer, pH 8.0. Digests were incubated at 37° C. for 1 hour. All digests were prepared in duplicate and optical densities were measured at 450 nm. Blank reaction contained buffer/enzyme. Blank reading was subtracted from the final reaction optical density to give corrected absorbance values. Standard deviations are given in parentheses. The activity of elastase varies with substrate in the following order: elastin>casein>gelatin. The activity of trypsin varies with substrate in the following order: gelatin>casein>elastin. Substrate affinity was evaluated by the level of absorbance at 450 nm each protease generated with each substrate.

[2] = Elastase assay using Suc(Ala)3-nA (SANA); settings: room temperature, 20 minutes
Procedure: Elastase assay using Suc(Ala)3-nA (SANA). The following method was used for testing PPE (CalBio-chem) activity. A 25 mM stock solution of SANA (Sigma) in dimethyl sulfoxide (Sigma), 1 mg/ml stock solution of elastase in distilled water, and 0.2 M Tris buffer pH 8.0 with 0.1% Triton X-100(Sigma) was prepared. The assay contained 12 μl of SANA and 50 μl of the enzyme sample and was made up to 200 μl with 0.2 M Tris buffer. All reactions were prepared in 96-well Falcon 3097 flat-bottom microtiter plates (Beckton Dickinson) and carried out at room temperature. The optical density of each digest was recorded for 20 min, at 30 second intervals, at 405 nm using a Bio-Whittaker microplate reader 2001 (Bio-Whittaker).
(§3) Comparison of Succinyl Elastin with SANA. The sensitivity of the succinylated elastin assay was compared to an elastase assay that uses SANA, a synthetic elastase substrate. 50 μl of 1000, 100, 10 and 1 ng/ml elastase was used to digest 100 μg of succinylated elastin and 12 μl of 12 mM SANA. The succinylated elastin digest was carried out at 37° C. for 1 hour. The SANA elastase assay was carried out at room temperature for 20 minutes. Optical densities were measured at 450 nm for succinylated elastin assay and 405 nm for SANA elastase assay. Blank reaction contained buffer/enzyme. Blank reading was subtracted from the final reaction optical density to give corrected absorbance values. Standard deviations are given in parentheses.

[3] = test system: succinylated elastin; assay: Protease assay using succinylated elastin substrate with TNBSA detection; settings: 37° C., 1 hour; for corrected absorbance at 450 nm, substrate Elastin: 100 μg succinylated elastin
Procedure: as §1, §2, §3

[4] = test system: succinylated gelatin; assay: Protease assay using succinylated gelatin substrate with TNBSA detection; settings: 100 μg succinylated gelatin, 37° C., 1 hour
Procedure: as §1, §2

Molecule	corrected absorbance at 450 nm, substrate Casein ([1]; protease concentration 1)	corrected absorbance at 450 nm, substrate Casein ([1]; protease concentration 10)	corrected optical density at 405 nm, SANA ([2]; elastase 1 ng/ml)	corrected optical density at 405 nm, SANA ([2]; elastase 10 ng/ml)	corrected optical density at 405 nm, SANA ([2]; elastase 100 ng/ml)	corrected optical density at 405 nm, SANA ([2]; elastase 1000 ng/ml)	corrected optical density at 450 nm, Succinylated Elastin ([3]; elastase 1 ng/ml)	corrected optical density at 450 nm, Succinylated Elastin ([3]; elastase 10 ng/ml)	corrected optical density at 450 nm, Succinylated Elastin ([3]; elastase 100 ng/ml)	corrected optical density at 450 nm, Succinylated Elastin ([3]; elastase 1000 ng/ml)	corrected absorbance at 450 nm, substrate Elastin ([3]; protease concentration 1)	corrected absorbance at 450 nm, substrate Elastin ([3]; protease concentration 10)	corrected absorbance at 450 nm, substrate Gelatin ([4]; protease concentration 1)	corrected absorbance at 450 nm, substrate Gelatin ([4]; protease concentration 10)
Elastase: Porcine pancreatic elastase (PPE; 297 units/mg) (EC 3.4.21.36) purchased from CalBiochem	0.071	0.28	0	0	0.011 (±0.004)	0.129 (±0.026)	0.0086 (±0.003)	0.01 (±0.001)	0.015 (±0.004)	0.054 (±0.006)	0.085	0.377	0.037	0.120
B1	0.106	0.158	–	–	–	–	–	–	–	–	0.024	0.049	0.179	0.354
